Source: patent US7008545B2, “Synergistic biocidal mixtures” (Hercules Incorporated, priority 2002, dated 2006)

What was measured:
[1] = tested on: artificial bacterial consortium; experiment: Dose protocol, bacterial growth inhibition (O.D. 650 nm) in synthetic white water, concurrent fed strategy; type: cell-based; details: for ppm MBT / ppm DGH / ppm Glut / ppm Dithiol / ppm BIT / ppm BNPD / ppm DBNPA / ppm DCOI / ppm DIDAC / ppm DBDCB: alone or with AmBr; for ppm Sulfone: concentration of Sulfone at 50% inhibition
Experimental: A measured amount of ammonium bromide activated with sodium hypochlorite and a measured amount of a non-oxidizing biocide were added to a suspension of bacteria. The effectiveness of the combination of the biocides is determined by measuring growth or lack thereof after an appropriate incubation time.
(§1) The efficacy of the active materials and blends was determined using a dose protocol. The actives were evaluated in synthetic white water with pH values of 5.5 and 8.0. The materials were tested against an artificial bacterial consortium containing approximately equal numbers of six bacterial strains. Although the test strains are representative of organisms present in paper mill systems, the effect is not limited to these bacteria. Two of the strains were Klebsiella pneumonia (ATCC 13883) and Pseudomonas aeruginosa (ATCC 15442). The other four strains were isolated from papermill systems and have been identified as Curtobacterium flaccumfaciens, Burkholderia cepacia, Bacillus maroccanus, and Pseudomonas glathei. Each strain was inoculated at 37° C. overnight, then suspended in sterile saline. Equal volumes of each strain were then combined to prepare the consortium. The bacterial consortium was distributed into the wells of a microtiter plate in the presence and absence of various concentrations of the active materials. The microtiter plates were incubated at 37° C. Optical density (O.D.) readings at 650 nm were taken initially (t0) and after time 4 hours (t4) of incubation.
(§2) The raw data was converted to “bacterial growth inhibition precentages” according to the following formula: % Inhibition=[(a−b)÷a]*100 where: • a=(O.D. of control at tn)−(O.D. of control at t0) • b=(O.D. of treatment at tn)−(O.D. of treatment at t0)
(§3) The inhibition values can be plotted versus dosage for each active and the particular blend. […] In the examples (tables) below, the I50 values are expressed as parts per million (ppm) of active material.
(§4) The synergism index (SI) was calculate by the equations described by F. C. Kull, P. C. Eisman, H. D. Sylwestrowicz, and R. L. Mayer (1961), Applied Microbiology 9, 538–541. The values are based on the amount needed to achieve a specified end point. The end point selected for these studies was 50% inhibition of bacterial growth. Synergy Index (SI)=(QA÷Qa)+(QB÷Qb) where: • QA=quantity of compound A in mixture, producing the end point • Qa=quantity of compound A, acting alone, producing the end point • QB=quantitiy of compound B in mixture, producing the end point • Qb=quantity of compound B, acting alone, producing the end point
(§5) If SI is less than 1, synergism exists; if SI is greater than 1, antagonism exists; if SI is equal to 1, an additive effect exists.

[2] = tested on: artificial bacterial consortium; experiment: Dose protocol, bacterial growth inhibition (O.D. 650 nm) in synthetic white water, sequential fed strategy, one hour delay between the additions; type: cell-based; details: for ppm MBT: concentration of MBT at 50% inhibition; for ppm DBNPA: alone or with AmBr; for ppm Sulfone: concentration of Sulfone at 50% inhibition
Experimental: A measured amount of ammonium bromide activated with sodium hypochlorite was added to a suspension of bacteria and the cell suspension incubated for a selected time after which a measured amount of a selected non-oxidizing biocide was then added to the suspension. The effectiveness of the combination of biocides was determined by measuring growth or lack thereof after an additional appropriate incubation time.
A measured amount of a selected non-oxidizing biocide was added to a suspension of bacteria and the cell suspension was incubated for a selected time after which a measured amount of ammonium bromide activated with sodium hypochlorite was then added to the suspension. The effectiveness of the combination of biocides was determined by measuring growth or lack thereof after an additional appropriate incubation time.
as §1, §2, §3, §4, §5

[3] = pH 5.5, amount giving 50% inhibition
[4] = pH 8.0, amount giving 50% inhibition
[5] = pH 5.5, alone or with AmBr at the stated ratio
[6] = pH 8.0, alone or with AmBr at the stated ratio
[7] = DBNPA & AmBr, pH 5.5, end point 50% inhibition
[8] = DBNPA & AmBr, pH 8.0, end point 50% inhibition
[9] = Sulfone & AmBr, at 50% inhibition, pH 5.5
[10] = Sulfone & AmBr, at 50% inhibition, pH 8.0

N#CSCSC#N [MBT, Methylene bisthiocyanate]
Synergy Index ([1]; MBT & AmBr, pH 5.5, end point 50% inhibition): 1.00
Synergy Index ([1]; MBT & AmBr, pH 8.0, end point 50% inhibition): 1.00
ppm MBT [1, 3]: 0.36 ppm
ppm MBT [1, 4]: 0.71 ppm
Synergy Index ([2]; MBT & AmBr, at 50% inhibition, pH 5.5): 1.00
Synergy Index ([2]; MBTC & AmBr, at 50% inhibition, pH 8.0): 1.00
ppm MBT [2, 5]: 0.38 ppm
ppm MBT [2, 6]: 0.73 ppm

CCCCCCCCCCCCNC(=N)N.Cl [DGH, N-Dodecylguanidine hydrochloride]
Synergy Index ([1]; DGH & AmBr, pH 5.5, end point 50% inhibition): 1.00
Synergy Index ([1]; DGH & AmBr, pH 8.0, end point 50% inhibition): 1.00
ppm DGH [1, 3]: 3.11 ppm
ppm DGH [1, 4]: 1.84 ppm

O=CCCCC=O [Glut, Glutaraldehyde]
Synergy Index ([1]; Glut & AmBr, pH 5.5, end point 50% inhibition): 1.00
Synergy Index ([1]; Glut & AmBr, pH 8.0, end point 50% inhibition): 1.00
ppm Glut [1, 3]: 2.06 ppm
ppm Glut [1, 4]: 6.68 ppm

O=c1ssc(Cl)c1Cl [Dithiol, 4,5-Dichloro-1,2-dithiol-3-one]
Synergy Index ([1]; Dithiol & AmBr, pH 5.5, end point 50% inhibition): 1.00
Synergy Index ([1]; Dithiol & AmBr, pH 8.0, end point 50% inhibition): 1.00
ppm Dithiol [1, 3]: 0.63 ppm
ppm Dithiol [1, 4]: 0.84 ppm

O=c1[nH]sc2ccccc12 [BIT, 1,2-Benzisothiazolin-3-one]
Synergy Index ([1]; BIT & AmBr, pH 5.5, end point 50% inhibition): 1.00
Synergy Index ([1]; BIT & AmBr, pH 8.0, end point 50% inhibition): 1.00
ppm BIT [1, 3]: 1.62 ppm
ppm BIT [1, 4]: 3.59 ppm

O=[N+]([O-])C(Br)(CO)CO [BNPD, 2-Bromo-2-nitropropane-1,3-diol]
Synergy Index ([1]; BNPD & AmBr, pH 5.5, end point 50% inhibition): 1.00
Synergy Index ([1]; BNPD & AmBr, pH 8.0, end point 50% inhibition): 1.00
ppm BNPD [1, 3]: 1.16 ppm
ppm BNPD [1, 4]: 1.34 ppm

N#CC(Br)(Br)C(N)=O [DBNPA, 2,2-Dibromo-3-nitrilopropionamide]
Synergy Index [1, 7]: 1.00
Synergy Index [1, 8]: 1.00
ppm DBNPA [1, 3]: 3.08 ppm
ppm DBNPA [1, 4]: 2.86 ppm
Synergy Index [2, 7]: 1.00
Synergy Index [2, 8]: 1.00
ppm DBNPA [2, 3]: 3.09 ppm
ppm DBNPA [2, 4]: 2.33 ppm

CCCCCCCCn1sc(Cl)c(Cl)c1=O [DCOI, 4,5-Dichloro-2-n-octyl-3(2H)-isothiazolinone]
Synergy Index ([1]; DCOI & AmBr, pH 5.5, end point 50% inhibition): 1.00
Synergy Index ([1]; DCOI & AmBr, pH 8.0, end point 50% inhibition): 1.00
ppm DCOI [1, 3]: 0.39 ppm
ppm DCOI [1, 4]: 1.49 ppm

CCCCCCCCCC[N+](C)(C)CCCCCCCCCC.[Cl-] [DIDAC, Didecyl dimethyl ammonium chloride]
Synergy Index ([1]; DIDAC & AmBr, pH 5.5, end point 50% inhibition): 1.00
Synergy Index ([1]; DIDAC & AmBr, pH 8.0, end point 50% inhibition): 1.00
ppm DIDAC [1, 3]: 1.82 ppm
ppm DIDAC [1, 4]: 1.62 ppm

O=S(=O)(C(Cl)(Cl)Cl)C(Cl)(Cl)Cl [Sulfone, bis(trichloromethyl)sulfone]
Synergy Index [1, 9]: 1.00
Synergy Index [1, 10]: 1.00
ppm Sulfone [1, 5]: 1.87 ppm
ppm Sulfone [1, 6]: 8.42 ppm
Synergy Index [2, 9]: 1.00
Synergy Index [2, 10]: 1.00
ppm Sulfone [2, 5]: 4.44 ppm
ppm Sulfone [2, 6]: 10.25 ppm

N#CCCC(Br)(C#N)CBr (centres unmarked) [DBDCB, 1,2-Dibromo-2,4-dicyanobutane]
Synergy Index ([1]; DBDCB & AmBr, pH 5.5, end point 50% inhibition): 1.00
Synergy Index ([1]; DBDCB & AmBr, pH 8.0, end point 50% inhibition): 1.00
ppm DBDCB [1, 3]: 2.70 ppm
ppm DBDCB [1, 4]: 1.85 ppm
